{"source": "patent US20090264291A1", "about": "“COMPOSITIONS COMPRISING ANTI-PROLIFERATIVE AGENTS AND USE THEREOF” (priority 1998, published 2009)", "tested_on": "cells", "experiment": "Cytotoxicity by agarose diffusion test", "type": "cell-based", "method": "Cytotoxicity was assessed by an agarose diffusion test, in which the test material is applied to the surface of agarose gel, wherein the agarose gel is in contact with cells. Cytotoxic test material causes cell lysis. Live cells incorporate MTT and transform it to formazan as described herein above; cytotoxicity potential is given according to the mean area of non-stained cells, i.e., lysed cells, by the following scale:\nTwo independent tests were performed in duplicate (total of 4 Petri dishes). Cultured cell were trypsinized and counted. 2×10^6 cells in 4 ml of DMEM medium were seeded in each 50 mm diameter Petri dish. The dishes were incubated for 24 h+1 h at 37° C., 5% CO2, before they were covered with 4% agarose gel, prepared with complete DMEM medium. The test compound (tomato derived extract) was applied on top of a 6 mm disc of filter paper that was placed in the center of the agarose gel surface.\nAfter 23 h-25 h of contact at 37° C. and 5% CO2 the filter paper with the test compound and the agarose gel were gently removed. The cells were rinsed carefully with PBS by a pipette. The liquid was then removed, and 2 ml solution of MTT at 0.5 mg/ml, prepared extemporaneously from a source solution of 5 mg/ml, was added to each dish. The dishes were then incubated for 0.5-1.5 h at 37° C. and 5% CO2. After removal of the excess dye, living cells were colored while lysed cells appeared as an uncolored zone. Each dish was placed on a light surface and the largest and the smallest diameters of the lysis area, estimated visually, were measured by a measuring ruler (mm) on a graph paper, and the mean diameter was calculated.\nThe value of the diameter of cell lysis taken into account for the determination of cytotoxicity corresponded to the arithmetical mean of the mean diameter defined for the 2 dishes of each test (MD). Pure complete DMEM served as a negative control (no lysis should occur). 3% SDS served as a positive control (cells are lysed due to the presence of SDS).", "key": {"[1]": {"details": "dishes 1-4, 23 h-25 h of contact"}}, "note": "“And” between values parts separate entries of the source, which are not always exact repeats. Identical values can stand only once.", "data": [{"smiles": "CCCCCCCCCCCCOS(=O)(=O)[O-].[Na+]", "note": "[3% SDS, SDS]", "values": [{"measurement": "MD (mean of the mean diameter for the 2 dishes of each test)", "setting": "dishes 1 + 2 and 3 + 4", "result": 2.6, "unit": "cm"}, {"measurement": "Mean (diameter of lysis)", "setting": "dishes 1-4", "result": "2.6 cm and 2.5 cm"}, {"measurement": "Largest diameter (of the lysis area)", "setting": "[1]", "result": "2.5 cm and 2.6 cm"}, {"measurement": "Smallest diameter (of the lysis area)", "setting": "[1]", "result": "2.4 cm and 2.5 cm"}]}]}
